Source: patent US10617772B2, “Hsp9O-targeted inflammation and infection imaging and therapy” (Memorial Sloan Kettering Cancer Center, priority 2014, dated 2020)

Experiments:
[1] = tested on: inflammatory pulmonary infiltrate; assay: I-124 PUH71 PET-CT, microdose study in patients (FIGS. 1-2); type: in vivo, human; details: person with ovarian cancer; PET-CT 24 hours after intravenous injection of 9.3 mCi
Procedure: (§1) Positron emission tomography (PET) combined with X-ray computed tomography (CT) was performed using a state of the art integrated PET-CT scanner (Discovery DSTE™ General Electric). CT scans for attenuation correction and anatomic coregistration were performed prior to tracer-injection, using the following acquisition parameters: 140 kVp; 85 mA; pitch of 1.75:1; reconstructed slice thickness of 3.75 mm; 0.8 s per rotation. The CT protocol was designed for anatomic localization of tracer-signal and for attenuation correction, while minimizing radiation exposure. Each patient received ˜185 megabecquerel (MBq) [^124I]-PU-H71 by peripheral vein over two minutes. PET emission scans were acquired in two-dimensional mode starting at the mid-thighs moving toward the head, for 7.5 minutes per PET bed position. PET data were reconstructed using a standard ordered subset expected maximization iterative algorithm. Emission data were corrected for scatter, attenuation and decay. Clinical FDG PET-CT studies were performed according to standard methods using state of the art PET-CT scanners. [^124I]-PU-H71 scans were performed at 3-4 hrs, 20-24 hrs, 48-72 hours and, optionally, ˜168 hrs after tracer administration on the microdose [^124I]-PU-H71 PET-CT study.

[2] = tested on: inflammatory pulmonary consolidation; assay: I-124 PUH71 PET-CT, tracer mixed with a therapeutic dose of non-radioactive PUH71 (FIGS. 3-4); type: in vivo, human
Procedure: as §1
PU-PET images were taken 1.5, 4, 24 and 48-72 hrs after co-administration on the tracer mixed with a therapeutic dose of non-radioactive PUH71 in a total volume of […], co-infused intravenously over one hour. Patient were treated with PU-H71 at escalating dose levels determined by a modified continuous reassessment model. Each patient is treated with his or her assigned dose on day 1, 4, 8 and 11 of each 21 day cycle. Pre- and post-treatment biopsies were collected for correlative studies including LCMSMS quantification of PU-H71, with the latter obtained within 24 hours of their cycle 1, day 1 dose of PU-H71.

[3] = person with breast cancer, 6.5 mCi mixed with 35 mg non-radioactive PUH71, PET

Row | SMILES | accumulation of tracer in inflammatory pulmonary infiltrate (apex of left lung) [1] | clearance of tracer from blood stream (void of activity within the cardiac atrium) [2, 3] | tracer retention in left ventricle myocardium [2, 3] | accumulation and retention of tracer in inflammatory pulmonary consolidation (right lung) ([2]; person with breast cancer, 6.5 mCi mixed with 35 mg non-radioactive PUH71, immediately, 4 hours and 24 hours post-injection) | uptake relative to surrounding healthy tissues ([2]; diseased tissue, patients, PET) | blood clearance ([2]; patients, PET) | retention in the diseased tissue ([2]; patients, PET) | outcome of pulmonary consolidation on CT scan ([2]; two weeks after imaging, PUH71 35 mg twice a week for two weeks per three week cycle, together with antibiotic treatment and pleural fluid drainage)
1 | CC(C)NCCCn1c(Sc2cc3c(cc2[124I])OCO3)nc2c(N)ncnc21 [I-124 PUH71] | distinct accumulation | cleared from blood stream | distinct tracer retention | distinct accumulation and sustained retention | – | – | – | –
2 | CC(C)NCCCn1c(Sc2cc3c(cc2I)OCO3)nc2c(N)ncnc21 [PUH71] | – | – | – | – | high uptake | rapid blood clearance | sustained retention | pulmonary consolidation had resolved
